# Data reported in patent publication US20170209544A1, “A PEPTIDE THERAPY TO COUNTERACT INSULIN RESISTANCE AND TYPE 2 DIABETES” (The Regents of the University of California, priority 2014, published 2017).
# Where no end group is shown, it is not given here.
# What was measured:
# adipocytes = test: Leptin production in adipocytes; assay type: cell-based
# From the text: (§1) Mutant PST peptides were synthesized and screened. The peptides were synthesized as various deletion peptides of PST. Native PST (SEQ ID NO. 2) inhibited insulin-stimulated glucose uptake and leptin production in adipocytes. The inventors tested various deletion mutant PST peptides whether one or more of them would compete and prevent native PST action in adipocytes.
# WT-NCD mice = test: IP-ITT in WT-NCD mice; assay type: in vivo; details: chronic PST 5 μg/g BW for 15 days; WT mice on NCD
# Procedure: For glucose tolerance tests (GTT), glucose (1 mg/g) was injected intraperitoneally (IP-GTT) (at time zero) or gavaged orally (O-GTT) after a 12-hours fast. Tail-vein glucose levels were measured at −30, 0, 15, 30, 60, 90, and 120 minutes. For insulin tolerance tests (ITT), insulin (0.4 mU/g) was injected intraperitoneally and blood glucose levels were measured at the indicated time points. Chronic PST (5 μg/g/day) and PSTv1 (10 μg/day) treatments were carried out for 15 days. For acute treatment, either peptides or saline were injected 30 minutes before glucose or insulin injection. Synergy Software Kaleidagraph Version 4.0 calculated the area under the curve (AUC) for each line curve.
# Treatment with the PST variant PSTv1 improves, whereas PST worsens, glucose tolerance and insulin sensitivity in WT-DIO and WT-NCD mice. WT-DIO mice were treated with saline or PSTv1 (10 μg/g BW/day) for 15 days. Weight-matched DIO mice were fasted for 12 hrs and subjected to IP-GTT (2-way ANOVA: Treatment, p<0.0001; Time, p<0.0001; Interaction, p=0.17, n=6, as shown in FIG. 13A) and IP-ITT (2-way ANOVA: Treatment, p<0.0001; Time, p<0.0001; Interaction, p=0.62 n=9, as shown in FIG. 13C) and AUCs for glucose excursions were determined (as shown in FIGS. 13B and 13D). […]
# Chga-KO mice [1] = test: Glucose-stimulated insulin secretion during GTT in Chga-KO mice; assay type: in vivo
# From the text: As shown in FIGS. 4A-4D, to compare the effects of PSTv1 (the peptide with SEQ ID NO. 1) vs. PST on glucose-stimulated insulin secretion (GSIS), the inventors analyzed plasma insulin levels in Chga-KO mice during GTT experiments.
# Chga-KO mice [2] = test: Body weight of Chga-KO mice on NCD; assay type: in vivo; details: PST administration for 2 weeks
# KO-DIO mice = test: Adipose tissue inflammatory genes and plasma cytokines in PST-treated KO-DIO mice; assay type: in vivo; details: PST 5 μg/g BW for 15 days
# Procedure: (§2) RNA from tissues was extracted using a kit (RNeasy Plus, Qiagen, Valencia, Calif.). After DNase digestion, 200 ng of RNA was transcribed into cDNA in a 20-μl reaction using a High Capacity cDNA Archive kit and this cDNA was amplified. PCR (25-μl reactions) contained 5 μl of cDNA, 2×SYBR Green PCR Master Mix, and 400 nM of each primer. Differences in the threshold cycle number (ΔCt) between the target gene, the housekeeping gene Gapdh and the ribosomal protein gene 36B4 were used to calculate differences in expression. Primer sequences are provided below.
# Plasma cytokine concentrations were determined by a multiplex system from Quansys Biosciences (Logan, Utah).
# As shown in FIGS. 17A-17H, PST modulates adipose tissue inflammation. A group of KO-DIO mice were injected with saline or PST (5 μg/g BW) for 15 days. Weight-matched saline-treated WT-DIO, KO-DIO and PST-treated KO-DIO mice were fasted for 12 hr and sacrificed. Blood was collected to measure plasma cytokine levels. Tissues were subjected to RNA extraction, cDNA preparation and RT-qPCR analysis for cytokines (FIG. 17A, n=6), pro-inflammatory genes (FIG. 17B: Cd11c & IL-12p40, n=6; FIG. 17C: iNos, n=6), and anti-inflammatory genes (FIG. 17D: Arg-1 & IL-10, n=6; FIG. 17E: Mgl-1, Mgl-2 and Ym1, n=6). “*” Denotes comparison between the indicated groups. “*”: P<0.05, “**”: p<0.01, “***”: p<0.001.
# GRP78 = GRP78 (Homo sapiens, UniProt P11021); test: GRP78 ATPase enzymatic activity; assay type: biochemical
# Sequence of GRP78 (P11021 19-654, species assumed): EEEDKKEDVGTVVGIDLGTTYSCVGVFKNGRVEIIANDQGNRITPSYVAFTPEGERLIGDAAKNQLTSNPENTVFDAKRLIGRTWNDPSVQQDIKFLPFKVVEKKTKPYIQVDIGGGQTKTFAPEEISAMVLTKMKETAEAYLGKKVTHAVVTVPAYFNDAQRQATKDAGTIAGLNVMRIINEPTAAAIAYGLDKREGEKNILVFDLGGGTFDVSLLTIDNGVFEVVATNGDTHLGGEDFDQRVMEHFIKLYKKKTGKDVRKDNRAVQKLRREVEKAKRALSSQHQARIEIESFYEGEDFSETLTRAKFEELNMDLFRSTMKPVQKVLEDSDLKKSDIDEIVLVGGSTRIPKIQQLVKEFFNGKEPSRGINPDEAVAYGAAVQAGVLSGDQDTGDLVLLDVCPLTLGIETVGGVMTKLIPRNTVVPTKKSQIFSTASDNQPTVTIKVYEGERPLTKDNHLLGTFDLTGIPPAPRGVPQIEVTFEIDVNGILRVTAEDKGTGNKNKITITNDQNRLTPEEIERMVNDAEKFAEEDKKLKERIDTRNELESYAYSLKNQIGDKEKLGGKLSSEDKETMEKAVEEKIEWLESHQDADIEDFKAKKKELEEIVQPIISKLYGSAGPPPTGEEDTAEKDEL
# peritoneal macrophages = test: qPCR of inflammatory genes in cultured peritoneal macrophages; assay type: cell-based, mice
# Procedure: Peritoneal macrophages were isolated after thioglycollate (3% solution in water) stimulation as described. Isolated macrophages were cultured in DMEM with 10% FBS for 48 hours with daily medium changes. Cells were then serum-starved overnight in DMEM with low FBS (0.5%) and then exposed to saline, PST (100 nM), or LPS (100 ng/ml) for 4 hours. At the end of incubation, the cultures were subjected to RNA extraction.
# as §2
# As shown in FIGS. 18A-18H, PST promotes macrophage inflammation and chemotaxis. Peritoneal macrophages were isolated from WT-NCD and KO-NCD after thioglycollate injection. After 4-hr exposure to saline, LPS (100 ng/ml) or PST (100 nM), RNAs were extracted and cDNAs were prepared for qPCR analyses of Chga (FIG. 18A, n=8), iNos (FIG. 18B, n=8), Tnfα (FIG. 18C, n=8), Mcp-1 (FIG. 18D, n=8), IL-6 (FIG. 18E, n=8), IL-12p40 (FIG. 18F, n=8) and iNos genes (FIG. 18G, n=8). (FIG. 18H) Effects of PST on chemotaxis of activated macrophages from NCD-fed C57BL/6J mice (n=5). “*” Denotes comparison between the indicated groups. “*”: P<0.05, “**”: p<0.01, “***”: p<0.001.
# 3T3-L1 adipocytes = test: Insulin-stimulated glucose uptake in adipocytes; assay type: cell-based; details: 3T3-L1 adipocytes in culture; without any PST variant present
# From the text: as §1
# [3] = PST 100 nM, 4 hr, Chga-KO macrophages
substance,measurement,setting,value
"PEGKGEQEHSQQKEEEEEMAVVPQGLFRG-amide (PEGKGEQEHSQQKEEEEEMAVVPQGLFRG-NH2) [PST, Wild-type human pancreastatin, a chromogranin A derived peptide]",leptin production,adipocytes,inhibited
same,insulin sensitivity (IP-ITT),WT-NCD mice,induced insulin resistance
same,glucose-stimulated insulin secretion (GSIS),Chga-KO mice [1],lowers GSIS
same,plasma glucose concentration,Chga-KO mice [1],without lowering plasma glucose concentration
same,body weight,Chga-KO mice [2],did not change
same,plasma levels of IL-12p70 and Mcp-1,KO-DIO mice,raised
same,"plasma levels of Ifnγ, IL-6, Mip-1α, Kc and Tnfα",KO-DIO mice,had no effect
same,expression of Arg-1 and IL-10,KO-DIO mice; adipose tissue,significantly reduced
same,expression of Mgl-1 or Mgl-2,KO-DIO mice; adipose tissue,had no effect
same,expression of Ym-1,KO-DIO mice; adipose tissue,trend toward downregulating
same,"expression of pro-inflammatory genes IL-1β, Tnfα, IL-6, Mcp-1 and iNos",KO-DIO mice; adipose tissue,increased expression
same,GRP78's ATPase enzymatic activity,GRP78,inhibits
same,"expression of IL-6, IL-12p40 and iNos genes",peritoneal macrophages; [3],had no effect
same,expression of Tnfα and Mcp-1,peritoneal macrophages; [3],increased
same,"expression of Tnfα, Mcp-1, IL-6, IL-12p40 and iNos",peritoneal macrophages; macrophage cultures from WT and Chga-KO mice on NCD,increased
same,inhibition of insulin-stimulated glucose uptake,3T3-L1 adipocytes,35%
